Among the data in patent US11186591B2, “Difluoromethyl-aminopyridines and difluoromethyl-aminopyrimidines” (TORQUR AG, priority 2014, dated 2021) are IC50 values, retold here.

What is called pIC50 is −log10 of the IC50, conventionally taken in molar units.

Structures are written as SMILES. pIC50: −log10 of the molar value.

In one test the test system is pPKB S473 in A2058 cells. The test can be described thus: In-cell Western blot, pPKB S473. The note with it: Homo sapiens, 1 hour treatment, signal normalized to α-tubulin. Type of test: cell-based.
Test [1] relates to pS6 S235/S236 in A2058 cells. The test can be described thus: In-cell Western blot, pS6 S235/S236. Format: cell-based. The note with it: Homo sapiens, 1 hour treatment, signal normalized to α-tubulin.
Experimental: (§1) Cells are fixed with 4% paraformaldehyde for 30 minutes at room temperature, washed 2 times with 1% BSA in PBS, permeabilized with 0.1% Triton X-100 in PBS/1% BSA for 30 minutes at room temperature and blocked with 5% goat serum in PBS/1% BSA/0.1% Triton X-100 for 30 minutes at room temperature. […] Cells are washed 3 times 5 minutes with PBS/1% BSA/0.1% triton and plate scanned with the Odyssey Infrared Scanning system using both 700 and 800 nm channels. […] To correct for background staining in the data analysis wells are treated only with secondary antibodies.
(§2) For data analysis the mean background signal from channel 700 nm and 800 nm are subtracted from each signal in channel 700 nm and 800 nm, respectively.
(§3) IC50 values of each compound are determined by plotting the normalized pPBK S473 and pS6 S235/S236 signals, respectively, versus the compound concentrations (in logarithmic scale) and then by fitting a sigmoidal dose-response curve with variable slope to the data using GraphPad™ Prism.
A further test deals with P110α (Homo sapiens, UniProt P42336). The test can be described thus: P110α IC50 (Table 12, comparative biological activities). Format: biochemical.
Chain of P110α (P42336 whole entry, species assumed): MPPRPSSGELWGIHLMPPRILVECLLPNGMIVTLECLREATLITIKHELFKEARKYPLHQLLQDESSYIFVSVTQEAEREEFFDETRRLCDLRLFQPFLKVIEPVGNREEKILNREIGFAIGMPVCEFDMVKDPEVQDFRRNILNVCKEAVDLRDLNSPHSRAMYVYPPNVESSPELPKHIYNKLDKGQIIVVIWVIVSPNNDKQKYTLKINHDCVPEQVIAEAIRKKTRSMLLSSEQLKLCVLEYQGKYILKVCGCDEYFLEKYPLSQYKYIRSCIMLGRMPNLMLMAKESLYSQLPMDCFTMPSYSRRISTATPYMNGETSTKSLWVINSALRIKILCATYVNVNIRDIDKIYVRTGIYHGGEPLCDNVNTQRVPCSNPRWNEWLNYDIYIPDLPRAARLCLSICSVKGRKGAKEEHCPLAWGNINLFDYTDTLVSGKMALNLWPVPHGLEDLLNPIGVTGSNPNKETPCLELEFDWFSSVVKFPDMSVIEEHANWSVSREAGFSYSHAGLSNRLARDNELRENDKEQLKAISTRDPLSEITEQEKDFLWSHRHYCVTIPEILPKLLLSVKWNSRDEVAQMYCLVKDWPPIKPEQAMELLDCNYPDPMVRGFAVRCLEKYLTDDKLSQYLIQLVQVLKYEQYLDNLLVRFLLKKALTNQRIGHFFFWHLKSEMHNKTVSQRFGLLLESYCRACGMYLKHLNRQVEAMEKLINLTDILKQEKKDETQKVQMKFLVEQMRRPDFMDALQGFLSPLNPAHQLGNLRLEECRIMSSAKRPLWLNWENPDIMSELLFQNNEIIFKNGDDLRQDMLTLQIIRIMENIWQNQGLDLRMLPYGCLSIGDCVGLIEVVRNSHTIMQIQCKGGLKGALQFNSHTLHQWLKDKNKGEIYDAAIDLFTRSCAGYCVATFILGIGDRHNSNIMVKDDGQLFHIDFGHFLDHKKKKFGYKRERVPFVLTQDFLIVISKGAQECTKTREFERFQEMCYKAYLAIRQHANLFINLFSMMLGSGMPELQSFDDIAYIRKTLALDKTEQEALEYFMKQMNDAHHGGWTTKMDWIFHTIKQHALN
Chain of P110α (P27986 whole entry partner, species assumed): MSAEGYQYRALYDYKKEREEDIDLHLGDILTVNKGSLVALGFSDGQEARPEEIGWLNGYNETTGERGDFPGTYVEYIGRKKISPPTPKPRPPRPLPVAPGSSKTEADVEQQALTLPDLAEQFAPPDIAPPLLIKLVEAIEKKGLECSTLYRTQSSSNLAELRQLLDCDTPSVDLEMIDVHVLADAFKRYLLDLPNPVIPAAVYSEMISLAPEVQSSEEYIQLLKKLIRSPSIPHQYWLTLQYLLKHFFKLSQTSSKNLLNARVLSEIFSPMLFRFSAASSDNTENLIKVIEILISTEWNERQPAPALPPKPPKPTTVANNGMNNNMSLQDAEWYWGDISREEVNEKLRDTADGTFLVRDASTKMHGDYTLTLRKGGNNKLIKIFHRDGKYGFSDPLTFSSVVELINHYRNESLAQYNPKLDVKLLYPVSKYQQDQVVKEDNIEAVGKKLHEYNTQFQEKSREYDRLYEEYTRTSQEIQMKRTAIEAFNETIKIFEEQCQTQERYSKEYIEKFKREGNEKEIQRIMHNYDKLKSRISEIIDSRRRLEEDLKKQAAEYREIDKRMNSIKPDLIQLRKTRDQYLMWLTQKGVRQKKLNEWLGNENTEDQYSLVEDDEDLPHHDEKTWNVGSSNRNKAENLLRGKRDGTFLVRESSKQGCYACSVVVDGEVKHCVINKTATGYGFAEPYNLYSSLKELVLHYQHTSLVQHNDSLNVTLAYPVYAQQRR

Experimental for pPKB S473 in A2058 cells: as §1, §2, §3

For the compound `Nc1ncc(-c2nc(N3CCOCC3)nc(N3CCSCC3)n2)c(C(F)(F)F)n1` [reference compound], the negative-log IC50 (pIC50) in the test with pPKB S473 in A2058 cells (A2058, 1 h) is 6.46; in test [1] (A2058, 1 h) it was 6.00. The like results for `Nc1cc(C(F)F)c(-c2nc(N3CCOCC3)nc(N3CCOCC3=O)n2)cn1` [Example 35, 4-[4-[6-amino-4-(difluoromethyl)-3-pyridyl]-6-morpholino-1,3,5-triazin-2-yl]morpholin-3-one] were, in that order, 6.68 and 6.64. For `Nc1ncc(-c2nc(N3CCNCC3)nc(N3CCOCC3)n2)c(C(F)(F)F)n1` [reference compound] the same measures were 6.94 and 6.38. With `C[C@H]1COCCN1c1nc(-c2cnc(N)nc2C(F)F)nc(N2CCOC[C@@H]2C)n1`, in test [1] (A2058, 1 h), the pIC50 is 7.01. Turning to `Nc1cc(C(F)(F)F)c(-c2nc(N3CCNCC3)nc(N3CCOCC3)n2)cn1` [reference compound], the pIC50 with pPKB S473 in A2058 cells (A2058, 1 h) was 6.52; in test [1] (A2058, 1 h), 6.13. For `C[C@@H]1COCCN1c1nc(-c2cnc(N)cc2C(F)F)nc(-c2cnc(N)cc2C(F)F)n1` [Example 43, 5-[4-[6-amino-4-(difluoromethyl)-3-pyridyl]-6-[(3R)-3-methylmorpholin-4-yl]-1,3,5-triazin-2-yl]-4-(difluoromethyl)pyridin-2-amine], the pIC50 with pPKB S473 in A2058 cells is 6.42; in test [1], 6.81.

Turning to `Nc1cc(C(F)(F)F)c(-c2nc(N3CCOCC3)nc(N3CCOCC3)n2)cn1`, the pIC50 in the test with pPKB S473 in A2058 cells (A2058, 1 h) is 6.83; in test [1] (A2058, 1 h), 6.47. The like results for `C[C@H]1COCCN1c1cc(-c2cnc(N)nc2C(F)F)nc(N2CCOCC2)n1` were, in that order, 7.11 and 6.84. Take `C[C@H]1OC(=O)N(c2nc(-c3cnc(N)nc3C(F)(F)F)nc(N3CCOCC3)n2)[C@H]1CO` [reference compound]: the pIC50 was 6.16 in the test on pPKB S473 in A2058 cells (A2058, 1 h) and 5.73 against P110α. On to `Nc1ncc(-c2nc(N3CCOCC3)nc(N3CCOCC3=O)n2)c(C(F)F)n1` [Example 36, 4-[4-[2-amino-4-(difluoromethyl)pyrimidin-5-yl]-6-morpholino-1,3,5-triazin-2-yl]morpholin-3-one], for which the pIC50 with pPKB S473 in A2058 cells (A2058, 1 h) was 7.00; in test [1] (A2058, 1 h) it was 6.82. As for `C[C@H]1COCCN1c1nc(-c2cnc(N)cc2C(F)(F)F)nc(N2CCOC[C@@H]2C)n1`, the negative logarithm of the IC50 (pIC50) in the test on pPKB S473 in A2058 cells (A2058, 1 h) was 6.59; in test [1] (A2058, 1 h) it was 6.36. For the compound `C[C@H]1OC(=O)N(c2nc(-c3cnc(N)nc3C(F)F)nc(N3CCOCC3)n2)[C@H]1CO`, the negative-log IC50 (pIC50) is 7.00 with pPKB S473 in A2058 cells (A2058, 1 h) and 6.79 against P110α. With `C[C@H]1COCCN1c1nc(-c2cnc(N)cc2C(F)F)nc(N2CCOC[C@@H]2C)n1`, the pIC50 in the test on pPKB S473 in A2058 cells (A2058, 1 h) was 6.81; in test [1] (A2058, 1 h), 6.67. Consider `Nc1cc(C(F)(F)F)c(-c2nc(N3CCOCC3)nc(N3CCSCC3)n2)cn1` [reference compound], for which the pIC50 was 6.51 in the test with pPKB S473 in A2058 cells (A2058, 1 h) and 6.25 in test [1] (A2058, 1 h).

As to `Nc1ncc(-c2nc(N3CCOCC3)cc(N3CCOCC3)n2)c(C(F)F)n1`, the pIC50 in test [1] (A2058, 1 h) is 6.83.

For `C[C@H]1COCCN1c1nc(-c2cnc(N)nc2C(F)(F)F)nc(N2CCOC[C@@H]2C)n1`, the pIC50 with pPKB S473 in A2058 cells (A2058, 1 h) was 6.93; in test [1] (A2058, 1 h), 6.65.
